Results taken from patent US8993527B2, “Methods, compositions, and formulations for preventing or reducing adverse effects in a patient” (Pericor Therapeutics, Inc., priority 2005, dated 2015).
Read-outs that look alike come from different tables or passages of the source.

Columns and labels:
ischemic rat hearts = assay: Rat heart ischemia model: tissue adenosine levels; assay type: in vivo; settings: intraperitoneal; hearts excised after 60 minutes, incubated 60 minutes at 37° C.
Protocol: Male rats were injected intraperitonealy with either the AICA riboside analog, AICA riboside or saline, as a control. After 60 minutes, the hearts were excised and incubated at 37° C. for a further 60 minutes. Tissue extracts were prepared and analyzed for adenosine by high performance liquid chromatography (HPLC).

[1] = target: T1, NBTI-specific adenosine transport site (UniProt O54698); assay: [3H]-NBTI binding assay; settings: read-out: ED50 (50% displacement of bound [3H]-NBTI); 0.5 mg neuronal membrane protein, 0.5 nM [3H]-NBTI, 30 minutes
T1 sequence (O54698 1-457): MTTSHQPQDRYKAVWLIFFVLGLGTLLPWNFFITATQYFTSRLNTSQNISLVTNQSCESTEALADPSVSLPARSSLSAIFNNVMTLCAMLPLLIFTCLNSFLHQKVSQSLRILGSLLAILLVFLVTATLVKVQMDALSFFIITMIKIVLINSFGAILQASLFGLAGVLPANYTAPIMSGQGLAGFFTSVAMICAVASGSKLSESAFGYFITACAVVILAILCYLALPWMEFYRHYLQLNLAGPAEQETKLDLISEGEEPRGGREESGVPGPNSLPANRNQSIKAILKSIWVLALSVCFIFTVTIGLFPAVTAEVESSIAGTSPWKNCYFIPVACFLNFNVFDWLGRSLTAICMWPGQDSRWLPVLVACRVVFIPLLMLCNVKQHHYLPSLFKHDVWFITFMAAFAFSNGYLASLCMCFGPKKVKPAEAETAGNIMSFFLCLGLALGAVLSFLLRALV
Protocol: Increasing concentrations of the test compounds were incubated for 30 minutes with 0.5 mg neuronal membrane protein together with 0.5 nM [^3 H]-NBTI in a Tris buffer (pH 7.4) at room temperature. The assays were quenched and membranes collected by rapid filtration. Filters were then solubilized and radioactivity determined by scintillation counting.

[2] = test system: patients undergoing CABG surgery
[3] = plasma level 3.00–4.00 μg/ml, n = 44
[4] = plasma level 4.00–5.00 μg/ml, n = 61

NC(=O)c1ncn([C@@H]2O[C@H](CO)[C@@H](O)[C@H]2O)c1N [1 (1-110), 5-amino-1-β-D-ribofuranosyl-imidazole-4-carboxamide]
Tissue Adenosine Levels (% Increase vs. Saline) (ischemic rat hearts): 30% | EC50 [1]: > 1000 µM | Cardiac Death, incidence ([2]; Low Dose, n = 214): 5 (2.3%) | Cerebrovascular Accident, incidence ([2]; Low Dose, n = 214): 2 (0.9%) | Combined Clinical Outcomes, incidence ([2]; Low Dose, n = 214): 23 (10.7%) | Congestive Heart Failure, incidence ([2]; Low Dose, n = 214): 6 (2.8%) | Life-Threatening Dysrhythmia, incidence ([2]; Low Dose, n = 214): 9 (4.2%) | decrease in incidence of MI ([2]; high dose vs placebo): 68% | decrease in incidence of cerebrovascular accident ([2]; high dose vs placebo): 88% | reduction in the incidence of combined outcomes ([2]; high dose vs placebo): 61% | incidence of myocardial infarction by either ECG or CK-MB ([2]; high dose, placebo 24.1%): 20.8% | Myocardial Infarction MI, incidence ([2]; plasma level 0.25–2.00 μg/ml, n = 83): 2 (2.4%) | Combined Clinical Outcome, incidence ([2]; plasma level 0.25–2.00 μg/ml, n = 89): 9 (10.1%) | Myocardial Infarction MI, incidence ([2]; plasma level 2.00–3.00 μg/ml, n = 114): 5 (4.4%) | Combined Clinical Outcome, incidence ([2]; plasma level 2.00–3.00 μg/ml, n = 116): 11 (9.5%) | Combined Clinical Outcome, incidence [2, 3]: 3 (6.8%) | Myocardial Infarction MI, incidence [2, 3]: 1 (2.3%) | Combined Clinical Outcome, incidence [2, 4]: 2 (3.3%) | Myocardial Infarction MI, incidence [2, 4]: 0 | Myocardial Infarction MI, incidence ([2]; plasma level 5.00–6.00 μg/ml, n = 49): 2 (4.1%) | Combined Clinical Outcome, incidence ([2]; plasma level 5.00–6.00 μg/ml, n = 50): 3 (6.0%) | Myocardial Infarction MI, incidence ([2]; plasma level <0.25 μg/ml, n = 209): 9 (4.3%) | Combined Clinical Outcome, incidence ([2]; plasma level <0.25 μg/ml, n = 211): 29 (13.7%) | Myocardial Infarction MI, incidence ([2]; plasma level >6.00 μg/ml, n = 44): 1 (2.3%) | Combined Clinical Outcome, incidence ([2]; plasma level >6.00 μg/ml, n = 46): 4 (8.7%)
